# Organism: Rattus norvegicus
# Assay: Open TG-GATES - Regimen: Daily Repeat
# Assay type: toxicity, organism-based, Sprague-Dawley
# Design: regimen Daily Repeat, gender Male, age 6 weeks
# Details: in vivo, po, route gavage; for APTT / Bas / Eos / Fbg / Hb / Ht / Lym / MCH / MCHC / MCV / Mono / Neu / PT / Plat / RBC / Ret / WBC: tissue Blood; for KIDNEY_L / KIDNEY_R / KIDNEY_TOTAL: tissue Kidney; for LIVER: tissue Liver; for ALP / ALT / AST / BUN / CRE / DBIL / GLC / IP / K / LDH / Na / PL / RALB / TBIL / TC / TP / gamma-GTP / TG: tissue Plasma
# [1] = 0 mg/kg, 72 h, dose level Control, time 3 day
# [2] = 0 mg/kg, […], dose level Control, time 7 day
# [3] = 0 mg/kg, […], dose level Control, time 14 day
# [4] = 0 mg/kg, […], dose level Control, time 28 day
# [5] = 30 mg/kg, 72 h, dose level Low, time 3 day
# [6] = 30 mg/kg, […], dose level Low, time 7 day
# [7] = 30 mg/kg, […], dose level Low, time 14 day
# [8] = 30 mg/kg, […], dose level Low, time 28 day
compound,measurement,setting,value
Clc1ccccc1CN1CCc2sccc2C1 [TICLOPIDINE],TERMINAL_BW,[1],230.2 g
same,APTT,[1],20.4 s
same,Bas,[1],0.6%
same,Eos,[1],1%
same,Fbg,[1],211 mg/dL
same,Hb,[1],13.6 g/dL
same,Ht,[1],38.2%
same,Lym,[1],77.6%
same,MCH,[1],21.9 pg
same,MCHC,[1],35.8%
same,MCV,[1],61.3 fL
same,Mono,[1],3.2%
same,Neu,[1],17%
same,PT,[1],11.7 s
same,Plat,[1],127.8 x10_4/uL
same,RBC,[1],622.6 x10_4/ul
same,Ret,[1],6.2%
same,WBC,[1],129 x10_2/uL
same,KIDNEY_L,[1],1.1 g
same,KIDNEY_R,[1],1 g
same,KIDNEY_TOTAL,[1],2.1 g
same,LIVER,[1],11.1 g
same,ALP,[1],1033.4 IU/L
same,ALT,[1],42.8 IU/L
same,AST,[1],70.2 IU/L
same,BUN,[1],17 mg/dL
same,CRE,[1],0.4 mg/dL
same,DBIL,[1],0.07 mg/dL
same,GLC,[1],205.4 mg/dL
same,IP,[1],8.6 mg/dL
same,K,[1],4.4 meq/L
same,LDH,[1],128.8 IU/L
same,Na,[1],141.6 meq/L
same,PL,[1],148.6 mg/dL
same,RALB,[1],3.4 g/dL
same,TBIL,[1],0.1 mg/dL
same,TC,[1],69.8 mg/dL
same,TP,[1],5.5 g/dL
same,gamma-GTP,[1],1.2 IU/L
same,TERMINAL_BW,[2],252.6 g
same,TERMINAL_BW,[3],313.6 g
same,TERMINAL_BW,[4],400.8 g
same,APTT,[2],20.7 s
same,Bas,[2],1%
same,Eos,[2],1%
same,Fbg,[2],224.2 mg/dL
same,Hb,[2],14 g/dL
same,Ht,[2],38.4%
same,Lym,[2],81.6%
same,MCH,[2],21.3 pg
same,MCHC,[2],36.4%
same,MCV,[2],58.5 fL
same,Mono,[2],2.4%
same,Neu,[2],13.4%
same,PT,[2],11.4 s
same,Plat,[2],127 x10_4/uL
same,RBC,[2],658 x10_4/ul
same,Ret,[2],4.7%
same,WBC,[2],103.5 x10_2/uL
same,APTT,[3],20.6 s
same,Bas,[3],1%
same,Eos,[3],0.8%
same,Fbg,[3],220.6 mg/dL
same,Hb,[3],14.3 g/dL
same,Ht,[3],39.5%
same,Lym,[3],78.8%
same,MCH,[3],21.1 pg
same,MCHC,[3],36.2%
same,MCV,[3],58.1 fL
same,Mono,[3],2.8%
same,Neu,[3],16%
same,PT,[3],11.6 s
same,Plat,[3],116.1 x10_4/uL
same,RBC,[3],681.2 x10_4/ul
same,Ret,[3],4.3%
same,WBC,[3],121.8 x10_2/uL
same,APTT,[4],18.1 s
same,Bas,[4],0.8%
same,Eos,[4],1%
same,Fbg,[4],233.4 mg/dL
same,Hb,[4],15.5 g/dL
same,Ht,[4],41.4%
same,Lym,[4],80.2%
same,MCH,[4],20.9 pg
same,MCHC,[4],37.5%
same,MCV,[4],55.7 fL
same,Mono,[4],2%
same,Neu,[4],15.4%
same,PT,[4],11.5 s
same,Plat,[4],106.8 x10_4/uL
same,RBC,[4],743.4 x10_4/ul
same,Ret,[4],2.7%
same,WBC,[4],97 x10_2/uL
same,KIDNEY_L,[2],1.1 g
same,KIDNEY_R,[2],1 g
same,KIDNEY_TOTAL,[2],2.1 g
same,KIDNEY_L,[3],1.2 g
same,KIDNEY_R,[3],1.2 g
same,KIDNEY_TOTAL,[3],2.4 g
same,KIDNEY_L,[4],1.4 g
same,KIDNEY_R,[4],1.3 g
same,KIDNEY_TOTAL,[4],2.7 g
same,LIVER,[2],11.3 g
same,LIVER,[3],13.2 g
same,LIVER,[4],16.3 g
same,ALP,[2],1176 IU/L
same,ALT,[2],44.8 IU/L
same,AST,[2],81.6 IU/L
same,BUN,[2],15 mg/dL
same,CRE,[2],0.4 mg/dL
same,DBIL,[2],0.066 mg/dL
same,GLC,[2],195.4 mg/dL
same,IP,[2],6.9 mg/dL
same,K,[2],3.9 meq/L
same,LDH,[2],144.6 IU/L
same,Na,[2],141.4 meq/L
same,PL,[2],153.4 mg/dL
same,RALB,[2],3.4 g/dL
same,TBIL,[2],0.1 mg/dL
same,TC,[2],77.8 mg/dL
same,TG,[2],81.6 mg/dL
same,TP,[2],5.7 g/dL
same,gamma-GTP,[2],1.2 IU/L
same,ALP,[3],840.4 IU/L
same,ALT,[3],33.6 IU/L
same,AST,[3],70.2 IU/L
same,BUN,[3],17.2 mg/dL
same,CRE,[3],0.4 mg/dL
same,DBIL,[3],0.056 mg/dL
same,GLC,[3],215.8 mg/dL
same,IP,[3],7.5 mg/dL
same,K,[3],4.4 meq/L
same,LDH,[3],155.2 IU/L
same,Na,[3],142 meq/L
same,PL,[3],138 mg/dL
same,RALB,[3],3.4 g/dL
same,TBIL,[3],0.098 mg/dL
same,TC,[3],65.2 mg/dL
same,TG,[3],114 mg/dL
same,TP,[3],5.6 g/dL
same,gamma-GTP,[3],1.2 IU/L
same,ALP,[4],742.8 IU/L
same,ALT,[4],29.6 IU/L
same,AST,[4],58.6 IU/L
same,BUN,[4],18.2 mg/dL
same,CRE,[4],0.5 mg/dL
same,DBIL,[4],0.068 mg/dL
same,GLC,[4],214.4 mg/dL
same,IP,[4],6.7 mg/dL
same,K,[4],3.8 meq/L
same,LDH,[4],168.2 IU/L
same,Na,[4],141.6 meq/L
same,PL,[4],133.2 mg/dL
same,RALB,[4],3.6 g/dL
same,TBIL,[4],0.1 mg/dL
same,TC,[4],63 mg/dL
same,TG,[4],126.8 mg/dL
same,TP,[4],6.1 g/dL
same,gamma-GTP,[4],0.8 IU/L
same,TERMINAL_BW,[5],232 g
same,APTT,[5],19.7 s
same,Bas,[5],0.6%
same,Eos,[5],1%
same,Fbg,[5],223.6 mg/dL
same,Hb,[5],13.6 g/dL
same,Ht,[5],38.5%
same,Lym,[5],74.2%
same,MCH,[5],21.5 pg
same,MCHC,[5],35.2%
same,MCV,[5],61.1 fL
same,Mono,[5],3%
same,Neu,[5],20.2%
same,PT,[5],11.6 s
same,Plat,[5],129 x10_4/uL
same,RBC,[5],631.6 x10_4/ul
same,Ret,[5],6.2%
same,WBC,[5],88 x10_2/uL
same,KIDNEY_L,[5],1 g
same,KIDNEY_R,[5],1 g
same,KIDNEY_TOTAL,[5],2 g
same,LIVER,[5],11.3 g
same,ALP,[5],1106 IU/L
same,ALT,[5],36.4 IU/L
same,AST,[5],67.8 IU/L
same,BUN,[5],14.8 mg/dL
same,CRE,[5],0.4 mg/dL
same,DBIL,[5],0.072 mg/dL
same,GLC,[5],212 mg/dL
same,IP,[5],7.5 mg/dL
same,K,[5],4.1 meq/L
same,LDH,[5],163.6 IU/L
same,Na,[5],142 meq/L
same,PL,[5],155.8 mg/dL
same,RALB,[5],3.4 g/dL
same,TBIL,[5],0.1 mg/dL
same,TC,[5],75.4 mg/dL
same,TG,[5],100.8 mg/dL
same,TP,[5],5.6 g/dL
same,gamma-GTP,[5],1 IU/L
same,TERMINAL_BW,[6],262.3 g
same,TERMINAL_BW,[7],314 g
same,TERMINAL_BW,[8],386.1 g
same,APTT,[6],18.1 s
same,Bas,[6],0.8%
same,Eos,[6],1%
same,Fbg,[6],231.2 mg/dL
same,Hb,[6],14.1 g/dL
same,Ht,[6],39.3%
same,Lym,[6],76%
same,MCH,[6],21.3 pg
same,MCHC,[6],35.7%
same,MCV,[6],59.7 fL
same,Mono,[6],3.2%
same,Neu,[6],18.2%
same,PT,[6],11.2 s
same,Plat,[6],117.8 x10_4/uL
same,RBC,[6],658.6 x10_4/ul
same,Ret,[6],5.8%
same,WBC,[6],104.1 x10_2/uL
same,APTT,[7],21.4 s
same,Bas,[7],0.8%
same,Eos,[7],0.8%
same,Fbg,[7],221.2 mg/dL
same,Hb,[7],14.1 g/dL
same,Ht,[7],39.2%
same,Lym,[7],78.6%
same,MCH,[7],21.2 pg
same,MCHC,[7],36.1%
same,MCV,[7],58.7 fL
same,Mono,[7],2.6%
same,Neu,[7],16.8%
same,PT,[7],11.6 s
same,Plat,[7],116.9 x10_4/uL
same,RBC,[7],668.2 x10_4/ul
same,Ret,[7],4.7%
same,WBC,[7],124.8 x10_2/uL
same,APTT,[8],18 s
same,Bas,[8],0.6%
same,Eos,[8],1.2%
same,Fbg,[8],223.6 mg/dL
same,Hb,[8],14.9 g/dL
same,Ht,[8],40.4%
same,Lym,[8],82%
same,MCH,[8],19.9 pg
same,MCHC,[8],37%
same,MCV,[8],53.7 fL
same,Mono,[8],2%
same,Neu,[8],13.8%
same,PT,[8],11.7 s
same,Plat,[8],106 x10_4/uL
same,RBC,[8],752.8 x10_4/ul
same,Ret,[8],2.9%
same,WBC,[8],115.9 x10_2/uL
same,KIDNEY_L,[6],1.1 g
same,KIDNEY_R,[6],1.1 g
same,KIDNEY_TOTAL,[6],2.2 g
same,KIDNEY_L,[7],1.3 g
same,KIDNEY_R,[7],1.2 g
same,KIDNEY_TOTAL,[7],2.5 g
same,KIDNEY_L,[8],1.3 g
same,KIDNEY_R,[8],1.3 g
same,KIDNEY_TOTAL,[8],2.7 g
same,LIVER,[6],12.2 g
same,LIVER,[7],14.3 g
same,LIVER,[8],15.6 g
same,ALP,[6],861.2 IU/L
same,ALT,[6],38.4 IU/L
same,AST,[6],71.8 IU/L
same,BUN,[6],15.4 mg/dL
same,CRE,[6],0.4 mg/dL
same,DBIL,[6],0.068 mg/dL
same,GLC,[6],204.4 mg/dL
same,IP,[6],7.6 mg/dL
same,K,[6],3.9 meq/L
same,LDH,[6],167.6 IU/L
same,Na,[6],142.4 meq/L
same,PL,[6],150.8 mg/dL
same,RALB,[6],3.5 g/dL
same,TBIL,[6],0.1 mg/dL
same,TC,[6],78.4 mg/dL
same,TP,[6],5.7 g/dL
same,gamma-GTP,[6],1 IU/L
same,ALP,[7],887.6 IU/L
same,ALT,[7],36.4 IU/L
same,AST,[7],68.8 IU/L
same,BUN,[7],16.8 mg/dL
same,CRE,[7],0.4 mg/dL
same,DBIL,[7],0.058 mg/dL
same,GLC,[7],225.4 mg/dL
same,IP,[7],7.7 mg/dL
same,K,[7],4.2 meq/L
same,LDH,[7],174.2 IU/L
same,Na,[7],142.2 meq/L
same,PL,[7],154.8 mg/dL
same,RALB,[7],3.3 g/dL
same,TBIL,[7],0.1 mg/dL
same,TC,[7],74.4 mg/dL
same,TG,[7],120.6 mg/dL
same,TP,[7],5.7 g/dL
same,gamma-GTP,[7],1 IU/L
same,ALP,[8],647.4 IU/L
same,ALT,[8],37 IU/L
same,AST,[8],64.2 IU/L
same,BUN,[8],15.8 mg/dL
same,CRE,[8],0.5 mg/dL
same,DBIL,[8],0.07 mg/dL
same,GLC,[8],200.8 mg/dL
same,IP,[8],7.2 mg/dL
same,K,[8],3.8 meq/L
same,LDH,[8],145 IU/L
same,Na,[8],142 meq/L
same,PL,[8],158.4 mg/dL
same,RALB,[8],3.5 g/dL
same,TBIL,[8],0.1 mg/dL
same,TC,[8],78.4 mg/dL
same,TG,[8],133.8 mg/dL
same,TP,[8],5.8 g/dL
same,gamma-GTP,[8],1 IU/L
